Values joined by “and” are separate entries in the source; they are usually repeats but may differ in a detail not shown here. Identical values can stand only once. Records with an inconclusive call do not appear. Active and inactive are the calls of the source.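 How the source made its calls: active means compounds whose fitted half-maximal concentration is at most twice their own top valid dose, with signal falling; inconclusive means flat curve with 30 to 70% inhibition, or poor fit; inactive means the rest.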

For orientation: AC50 means the concentration at which the activity in the assay is half-maximal.

Assay [1] is described as follows: inhibitors of CFW-induced Rlm1 reporter, dose response, S. cerevisiae, lacZ luminescence, calcofluor white, dry powder (AID 743124). To be noted: S. cerevisiae Rlm1-lacZ reporter, CFW-induced, luminescence 4 h; at 35 µM (top of the series).
Assay [2] concerns S. cerevisiae Rlm1-lacZ reporter, CFW-induced, luminescence 4 h. The description is as above.

In the case of `CCOC(=O)c1c(-c2ccc(C(C)(C)C)cc2)csc1NC(=O)CN1CCN(CC)CC1`, the activity change, negative = inhibition in assay [1] is -28.1% (inactive).
Same read-out and setting: under `COC(=O)C1=C(C)N(Cc2ccc(Cl)cc2)C(=S)NC1c1ccc(Br)cc1` (centres undefined) stands 0.264% (inactive); under `Cc1ccccc1OCCn1c(=S)[nH]c2ccccc21`, -14.7% (inactive).
On to `Cc1ccc(OCCn2c(SCCO)nc3ccccc32)c(C(C)C)c1`, for which the AC50 in assay [2] is > 70 µM (inactive).
With `Cc1ccc2c(c1)[nH]c(=S)n2CCOc1ccccc1`, the activity change, negative = inhibition in assay [1] is -5.38% (inactive).
Still for that read-out and setting: for `CCOC(=O)c1c(-c2ccc(F)cc2)csc1NC(=O)CN1CCN(C)CC1` the value was -6.7% (inactive).
The same measure, in the same setting: for `CCOC(=O)c1c(-c2ccc(OC)cc2)csc1NC(=O)CN(C)CC(=O)N(C)C` the value was -25% (inactive).
As for `Fc1cccc2c1[nH]c(=S)n2CCOc1ccccc1`, the AC50 in assay [2] is > 70 µM (inactive).
Still for that read-out and setting: under `COC(=O)C1=C(C)N(Cc2ccc(Br)cc2)C(=S)NC1c1ccc(F)cc1` (centres undefined) stands > 70 µM (inactive).
On to `COC(=O)C1=C(C)N(Cc2ccc(Br)cc2)C(=S)NC1c1ccc(OC)cc1` (centres undefined), for which the activity change, negative = inhibition in assay [1] is 1.69% (inactive).
Same read-out and setting: for `Cc1ccc(OCCn2c(C)nc3ccccc32)cc1` the value was 13.6% (inactive).
`Fc1ccccc1OCCn1c(=S)[nH]c2ccccc21`: the AC50 in assay [2] is > 70 µM (inactive).
On to `O=c1[nH]c2ccccc2n1CCOc1ccccc1`, for which the activity change, negative = inhibition in assay [1] is 6.62% (inactive) and -10.4% (inactive).
Consider `CCOC(=O)c1c(-c2ccc(-c3ccccc3)cc2)csc1NC(=O)CNCCN(C)C`, for which the AC50 in assay [2] is > 70 µM (inactive).
Still for that read-out and setting: for `Cc1ccc(C(C)C)c(OCCn2c(=S)[nH]c3ccccc32)c1` the value was > 70 µM (inactive).
Turning to `Cc1ccc(OCCn2cnc3ccccc32)cc1`, the activity change, negative = inhibition in assay [1] was 15.9% (inactive).
On to `S=c1[nH]c2cccc(Cl)c2n1CCOc1ccccc1`, for which the AC50 in assay [2] is 26.7 µM.
For `S=c1[nH]c2ccccc2n1CCOc1ccccc1`, the AC50 in assay [2] was > 70 µM (inactive).
As to `Cc1ccc(OCCn2c(=S)[nH]c3ccccc32)cc1`, in assay [2], the AC50 is 33.2 µM.
Consider `COC(=O)C1=C(C)N(Cc2ccccc2)C(=S)NC1c1ccc(Br)cc1` (centres undefined), for which, in assay [1], the activity change, negative = inhibition is 9.97% (inactive).
On to `CCOC(=O)c1c(NC(=O)CN2CCN(C)CC2)sc(C)c1-c1ccc(C)cc1`, for which the AC50 in assay [2] was > 70 µM (inactive).
For the compound `CCOC(=O)c1c(-c2ccc(F)cc2)csc1NC(=O)CN1CCN(CC)CC1`, the activity change, negative = inhibition in assay [1] is -5.43% (inactive).
Same read-out and setting: for `CCOC(=O)c1c(NC(=O)CNCCN(C)C)sc(C)c1-c1ccccc1` the value was -8.38% (inactive).
Turning to `COC(=O)C1=C(C)N(Cc2ccc(F)cc2)C(=S)NC1c1cccc(F)c1` (centres undefined), in assay [2], the AC50 is > 70 µM (inactive).

Values taken from PubChem BioAssay AID743124 (Broad Institute, 2013).
